In PMC6001238, “Iterative Chemical Engineering of Vancomycin Leads to Novel Vancomycin Analogs With a High in Vitro Therapeutic Index” (Frontiers in Microbiology, 2018):
Converted amounts (≈) assume the structure as drawn.

Assays:
E. faecalis VSE 1 = assay: MIC, broth microdilution, vancomycin-sensitive E. faecalis (VSE 1); format: cell-based, Enterococcus faecalis; settings: for MIC: Enterococcus faecalis VSE 1 (vancomycin-sensitive), read-out: MIC; for MIC-fold improvement vs. vancomycin: VSE 1, ratio of MIC of vancomycin and MIC of analogue
In short: (§1)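 Assayed by broth microdilution under CLSI antimicrobial testing rules. One case paired the analog or control drug with vancomycin at a 10 μM final concentration; water and inoculum-free broth were controls.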

E. faecalis VRE 6 = assay: MIC, broth microdilution, vancomycin-resistant E. faecalis VRE 6 (VanA); format: cell-based, Enterococcus faecalis; settings: for MIC: Enterococcus faecalis VRE 6 (vancomycin-resistant), read-out: MIC; for MIC-fold improvement vs. vancomycin: VRE 6, ratio of MIC of vancomycin and MIC of analogue
In short: as §1

E. faecalis VRE 53 = assay: MIC, broth microdilution, vancomycin-resistant E. faecalis VRE 53 (VanA); format: cell-based, Enterococcus faecalis; settings: for MIC: Enterococcus faecalis VRE 53 (vancomycin-resistant), read-out: MIC; for MIC-fold improvement vs. vancomycin: VRE 53, ratio of MIC of vancomycin and MIC of analogue
In short: as §1

E. faecalis VRE 29 = assay: MIC, broth microdilution, vancomycin-resistant E. faecalis VRE 29 (VanA); format: cell-based, Enterococcus faecalis; settings: for MIC: Enterococcus faecalis VRE 29 (vancomycin-resistant), read-out: MIC; for MIC-fold improvement vs. vancomycin: VRE 29, ratio of MIC of vancomycin and MIC of analogue
In short: as §1

E. faecalis VRE 37 = assay: MIC, broth microdilution, vancomycin-resistant E. faecalis VRE 37 (VanA); format: cell-based, Enterococcus faecalis; settings: for MIC: Enterococcus faecalis VRE 37 (vancomycin-resistant), read-out: MIC; for MIC-fold improvement vs. vancomycin: VRE 37, ratio of MIC of vancomycin and MIC of analogue
In short: as §1

[1] = tested on: Murine leukemia (L1210) cells; assay: Cytostatic activity, L1210 cell proliferation; format: cell-based; settings: mean ± SD of three experiments; highest concentration tested 250 µM; 2 days; read-out: Toxicity (IC50) L1210
In short: (§2)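 Suspensions (300,000–500,000 cells/mL) combined with equal volumes of diluted compound; 37°C; L1210 2 d / CEM 3 d / HeLa 4 d; counted by Coulter counter; IC50 vs untreated wells.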

[2] = tested on: human T-lymphocyte (CEM) cells; assay: Cytostatic activity, CEM cell proliferation; format: cell-based; settings: mean ± SD of three experiments; highest concentration tested 250 µM; 3 days; read-out: Toxicity (IC50) CEM
In short: as §2

[3] = tested on: human cervix carcinoma (HeLa) cells; assay: Cytostatic activity, HeLa cell proliferation; format: cell-based; settings: mean ± SD of three experiments; highest concentration tested 250 µM; 4 days; read-out: Toxicity (IC50) HeLa
In short: as §2

[4] = tested on: L1210, CEM and HeLa cell lines; assay: Cytostatic activity, average or summary over L1210, CEM and HeLa; format: cell-based; settings: average of L1210, CEM and HeLa; read-out: Toxicity (IC50) Average
In short: as §2

[5] = tested on: S. aureus VSSA (ATCC 6538); assay: MIC, broth microdilution, vancomycin-sensitive S. aureus (VSSA/MSSA, ATCC 6538); format: cell-based, Staphylococcus aureus; settings: for MIC: Staphylococcus aureus VSSA, read-out: MIC; for MIC-fold improvement vs. vancomycin: VSSA, ratio of MIC of vancomycin and MIC of analogue
In short: as §1

S. aureus VISA/HIP5827 = assay: MIC, broth microdilution, vancomycin-intermediate S. aureus VISA HIP5827; format: cell-based, Staphylococcus aureus; settings: for MIC: Staphylococcus aureus VISA/HIP5827, read-out: MIC; for MIC-fold improvement vs. vancomycin: VISA/HIP5827, ratio of MIC of vancomycin and MIC of analogue
In short: as §1

S. aureus VRSA = assay: MIC, broth microdilution, vancomycin-resistant S. aureus (VRSA); format: cell-based, Staphylococcus aureus; settings: for MIC: Staphylococcus aureus VRSA, read-out: MIC; for MIC-fold improvement vs. vancomycin: VRSA, ratio of MIC of vancomycin and MIC of analogue
In short: as §1

MRSA KS2 = assay: MIC, broth microdilution, MRSA KS2; format: cell-based, Staphylococcus aureus; settings: for MIC-fold improvement vs. vancomycin: MRSA KS2, ratio of MIC of vancomycin and MIC of analogue; for MIC: Staphylococcus aureus MRSA KS2, read-out: MIC
In short: as §1

MRSA KS6 = assay: MIC, broth microdilution, MRSA KS6; format: cell-based, Staphylococcus aureus; settings: for MIC-fold improvement vs. vancomycin: MRSA KS6, ratio of MIC of vancomycin and MIC of analogue; for MIC: Staphylococcus aureus MRSA KS6, read-out: MIC
In short: as §1

MRSA KS89 = assay: MIC, broth microdilution, MRSA KS89; format: cell-based, Staphylococcus aureus; settings: for MIC-fold improvement vs. vancomycin: MRSA KS8, ratio of MIC of vancomycin and MIC of analogue; for MIC: Staphylococcus aureus MRSA KS8, read-out: MIC
In short: as §1

MRSA KS1 = assay: MIC, broth microdilution, MRSA KS1; format: cell-based, Staphylococcus aureus; settings: for MIC-fold improvement vs. vancomycin: MRSA KS1, ratio of MIC of vancomycin and MIC of analogue; for MIC: Staphylococcus aureus MRSA KS1, read-out: MIC
In short: as §1

Compound | MIC (E. faecalis VSE 1) | MIC-fold improvement vs. vancomycin (E. faecalis VSE 1) | MIC (E. faecalis VRE 6) | MIC-fold improvement vs. vancomycin (E. faecalis VRE 6) | MIC (E. faecalis VRE 53) | MIC-fold improvement vs. vancomycin (E. faecalis VRE 53) | MIC (E. faecalis VRE 29) | MIC-fold improvement vs. vancomycin (E. faecalis VRE 29) | MIC (E. faecalis VRE 37) | IC50 [1] | IC50 [2] | IC50 [3] | IC50 [4] | MIC [5] | MIC-fold improvement vs. vancomycin [5] | MIC (S. aureus VISA/HIP5827) | MIC-fold improvement vs. vancomycin (S. aureus VISA/HIP5827) | MIC (S. aureus VRSA) | MIC-fold improvement vs. vancomycin (S. aureus VRSA) | MIC-fold improvement vs. vancomycin (MRSA KS2) | further results
CN[C@H](CC(C)C)C(=O)N[C@H]1C(=O)N[C@@H](CC(N)=O)C(=O)N[C@H]2C(=O)N[C@H]3C(=O)N[C@H](C(=O)N[C@H](C(=O)NCC(=O)Nc4ccccc4)c4cc(O)cc(O)c4-c4cc3ccc4O)[C@H](O)c3ccc(c(Cl)c3)Oc3cc2cc(c3O[C@@H]2O[C@H](CO)[C@@H](O)[C@H](O)[C@H]2O[C@H]2C[C@](C)(N)[C@H](O)[C@H](C)O2)Oc2ccc(cc2Cl)[C@H]1O [Vanc-3] | 0.78 µM (≈ 1.23 µg/mL) | 2 | 12.5 µM (≈ 19.8 µg/mL) | 16 | 25 µM (≈ 39.5 µg/mL) | 16 | 25 µM (≈ 39.5 µg/mL) | 16 | 25 µM (≈ 39.5 µg/mL) | > 250 µM | > 250 µM | > 250 µM | > 250 µM | 0.78 µM (≈ 1.23 µg/mL) | 1 | 0.78 µM (≈ 1.23 µg/mL) | 8 | 25 µM (≈ 39.5 µg/mL) | 4 | 1 | MIC (MRSA KS2): 0.78 µM (≈ 1.23 µg/mL); MIC-fold improvement vs. vancomycin (MRSA KS6): 1; MIC (MRSA KS6): 0.78 µM (≈ 1.23 µg/mL); MIC-fold improvement vs. vancomycin (MRSA KS89): 1; MIC (MRSA KS89): 0.78 µM (≈ 1.23 µg/mL); MIC-fold improvement vs. vancomycin (MRSA KS1): 1; MIC (MRSA KS1): 0.78 µM (≈ 1.23 µg/mL)
CNC(CC(C)C)C(=O)NC1C(=O)NC(CC(N)=O)C(=O)NC2C(=O)NC3C(=O)NC(C(=O)NC(C(=O)NCC(=O)Nc4ccc(-c5cn(-c6ccc(C)cc6)nn5)cc4)c4cc(O)cc(O)c4-c4cc3ccc4O)C(O)c3ccc(c(Cl)c3)Oc3cc2cc(c3OC2OC(CO)C(O)C(O)C2OC2CC(C)(N)C(O)C(C)O2)Oc2ccc(cc2Cl)C1O (centres unmarked) [Vanc-76] | 0.78 µM (≈ 1.36 µg/mL) | 2 | 1.56 µM (≈ 2.71 µg/mL) | 128 | 3.13 µM (≈ 5.44 µg/mL) | 128 | 3.13 µM (≈ 5.44 µg/mL) | 128 | 3.13 µM (≈ 5.44 µg/mL) | 11 ± 7 µM | 3.2 ± 0.6 µM | 17 ± 2 µM | 10 µM | 0.39 µM (≈ 0.678 µg/mL) | 2 | 0.78 µM (≈ 1.36 µg/mL) | 8 | 0.78 µM (≈ 1.36 µg/mL) | 128 | 4 | MIC-fold improvement vs. vancomycin (E. faecalis VRE 37): 128; MIC (MRSA KS2): 0.20 µM (≈ 0.348 µg/mL); MIC-fold improvement vs. vancomycin (MRSA KS6): 4; MIC (MRSA KS6): 0.20 µM (≈ 0.348 µg/mL); MIC-fold improvement vs. vancomycin (MRSA KS89): 4; MIC (MRSA KS89): 0.20 µM (≈ 0.348 µg/mL); MIC-fold improvement vs. vancomycin (MRSA KS1): >8; MIC (MRSA KS1): <0.10 µM
CN[C@H](CC(C)C)C(=O)N[C@H]1C(=O)N[C@@H](CC(N)=O)C(=O)N[C@H]2C(=O)N[C@H]3C(=O)N[C@H](C(=O)N[C@H](C(=O)NCC(=O)Nc4ccc(C)cc4C)c4cc(O)cc(O)c4-c4cc3ccc4O)[C@H](O)c3ccc(c(Cl)c3)Oc3cc2cc(c3O[C@@H]2O[C@H](CO)[C@@H](O)[C@H](O)[C@H]2O[C@H]2C[C@](C)(N)[C@H](O)[C@H](C)O2)Oc2ccc(cc2Cl)[C@H]1O [Vanc-15] | 1.56 µM (≈ 2.51 µg/mL) | 1 | 6.25 µM (≈ 10.1 µg/mL) | 32 | 25 µM (≈ 40.2 µg/mL) | 16 | 12.5 µM (≈ 20.1 µg/mL) | 32 | 25 µM (≈ 40.2 µg/mL) | > 250 µM | > 250 µM | 87 ± 12 µM | 196 µM | 0.78 µM (≈ 1.26 µg/mL) | 1 | 1.56 µM (≈ 2.51 µg/mL) | 4 | 12.5 µM (≈ 20.1 µg/mL) | 8 | 2 | MIC-fold improvement vs. vancomycin (E. faecalis VRE 37): 16; MIC (MRSA KS2): 0.39 µM (≈ 0.628 µg/mL); MIC-fold improvement vs. vancomycin (MRSA KS6): 1; MIC (MRSA KS6): 0.78 µM (≈ 1.26 µg/mL); MIC-fold improvement vs. vancomycin (MRSA KS89): 1; MIC (MRSA KS89): 0.78 µM (≈ 1.26 µg/mL); MIC-fold improvement vs. vancomycin (MRSA KS1): 1; MIC (MRSA KS1): 0.78 µM (≈ 1.26 µg/mL)
CNC(CC(C)C)C(=O)NC1C(=O)NC(CC(N)=O)C(=O)NC2C(=O)NC3C(=O)NC(C(=O)NC(C(=O)NCC(=O)Nc4ccc(C=Cc5ccc(N)cc5)cc4)c4cc(O)cc(O)c4-c4cc3ccc4O)C(O)c3ccc(c(Cl)c3)Oc3cc2cc(c3OC2OC(CO)C(O)C(O)C2OC2CC(C)(N)C(O)C(C)O2)Oc2ccc(cc2Cl)C1O (centres unmarked) [Vanc-58] | 0.78 µM (≈ 1.32 µg/mL) | 2 | 6.25 µM (≈ 10.6 µg/mL) | 32 | 25 µM (≈ 42.5 µg/mL) | 16 | 12.5 µM (≈ 21.2 µg/mL) | 32 | 12.5 µM (≈ 21.2 µg/mL) | > 250 µM | 197 ± 75 µM | 125 ± 57 µM | 191 µM | 0.78 µM (≈ 1.32 µg/mL) | 1 | 1.56 µM (≈ 2.65 µg/mL) | 4 | 0.78 µM (≈ 1.32 µg/mL) | 128 | 1 | MIC (MRSA KS2): 0.78 µM (≈ 1.32 µg/mL); MIC-fold improvement vs. vancomycin (MRSA KS6): 1; MIC (MRSA KS6): 0.78 µM (≈ 1.32 µg/mL); MIC-fold improvement vs. vancomycin (MRSA KS89): 1; MIC (MRSA KS89): 0.78 µM (≈ 1.32 µg/mL); MIC-fold improvement vs. vancomycin (MRSA KS1): 0.5; MIC (MRSA KS1): 1.56 µM (≈ 2.65 µg/mL)
